Experimental data: paper PMC12818745 (ACS Chemical Neuroscience, 2025)
Where two headings read alike, the source gives them in different places.

Legend:
[1] = biological target: T1, eqBChE (equine serum butyrylcholinesterase) (Equus caballus, UniProt P81908); experiment: Cholinesterase inhibition assay (modified Ellman's method), eqBChE; type: biochemical
T1 construct: eqBChE (equine serum butyrylcholinesterase); from tissue; host or cells: equine serum
Description: (§1) Compound series A and B were initially screened for their cholinesterase activity against eeAChE (Electrophorus electricus AChE) and eqBChE (equine serum butyrylcholinesterase), using an adaptation of the Ellman’s method. […]. […] Similarly, replacing the terminal triple bond in 7l with a nitrile group reduced its activity, while replacing the O-propargyl group with an N,N-dipropargyl group in 10 enhanced the inhibition of both enzymes, particularly BChE (Table ). The installation of an additional aryl ring in 7o further improved AChE inhibition, slightly increasing selectivity toward this enzyme. […]. […]. […]. The inhibitory activity of the synthesized compounds toward eeAChE and eqBChE was evaluated spectrophotometrically through a 96-well microplate modified Ellman’s method. The solutions of both enzymes were prepared as 0.025 U/mL in phosphate buffer at pH 7, from stock solutions of 5.05 U/mL and 7.50 U/mL, respectively. The stock solutions for the target compounds (0.1 M) were prepared in dimethyl sulfoxide (DMSO). […] The reaction mixture was prepared with 100 μL of the enzyme (eeAChE or eqBChE) and 50 μL of the test compound (or DMSO/water, not exceeding 0.2% of DMSO in the wells; i.e blank samples). After 5 min of the preincubation period at 37 °C, 50 μL of ATChI or BTChI and 50 μL of DTNB were added to each well, thus initiating the enzymatic reaction. The absorbance values were measured at 415 nm, for a total of 7.5 min, at every 2.5 min, using a microplate reader (Synergy multimode reader; BioTek). […]. All experiments were performed in triplicate.

AChE = AChE (Electrophorus electricus, UniProt O42275); experiment: Kinetic analysis (Lineweaver–Burk), AChE; type: biochemical; conditions: Lineweaver–Burk plots, substrate 50–800 μM
Chain of AChE (O42275 24-633): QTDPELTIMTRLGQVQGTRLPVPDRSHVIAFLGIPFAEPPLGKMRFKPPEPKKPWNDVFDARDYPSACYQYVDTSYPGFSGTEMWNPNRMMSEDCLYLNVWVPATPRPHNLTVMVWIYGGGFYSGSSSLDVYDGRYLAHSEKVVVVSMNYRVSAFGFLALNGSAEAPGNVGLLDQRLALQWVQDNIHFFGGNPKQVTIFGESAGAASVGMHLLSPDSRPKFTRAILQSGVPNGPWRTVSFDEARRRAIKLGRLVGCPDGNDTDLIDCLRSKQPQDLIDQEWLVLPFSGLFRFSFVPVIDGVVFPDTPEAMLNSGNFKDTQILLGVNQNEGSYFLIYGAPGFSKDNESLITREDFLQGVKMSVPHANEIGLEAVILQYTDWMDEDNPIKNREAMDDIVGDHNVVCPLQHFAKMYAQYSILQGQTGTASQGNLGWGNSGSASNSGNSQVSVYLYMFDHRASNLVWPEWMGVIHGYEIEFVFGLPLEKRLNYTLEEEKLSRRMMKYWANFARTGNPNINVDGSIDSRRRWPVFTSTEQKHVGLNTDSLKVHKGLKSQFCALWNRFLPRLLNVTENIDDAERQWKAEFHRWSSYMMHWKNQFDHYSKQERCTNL
Method: (§2) Based on the computational predictions, derivatives 10 (series A) and 11r (series B) were initially expected to interact with both CAS and PAS of AChE and BChE. However, to better understand the actual mechanism of action of these compounds, kinetic studies were performed (Figure ). […].
(§3) […]. The enzymatic reactions and measurements were performed using the same assay conditions, as described above for the inhibition of both enzymes. All experiments were performed in triplicate. Linear regression analysis was performed with GraphPad Prism 8.0.2 (GraphPad Software Inc.).

[2] = biological target: eeAChE (Electrophorus electricus AChE) (Electrophorus electricus, UniProt O42275); experiment: Cholinesterase inhibition assay (modified Ellman's method), eeAChE; type: biochemical; conditions: for SI eeAChE: ratio eqBChE IC50/eeAChE IC50
Chain of eeAChE (Electrophorus electricus AChE) (O42275 24-633): as above
Description: as §1

BChE = biological target: T2, BChE (Equus caballus, UniProt P81908); experiment: Kinetic analysis (Lineweaver–Burk), BChE; type: biochemical; conditions: Lineweaver–Burk plots, substrate 50–800 μM
T2 construct: eqBChE (equine serum butyrylcholinesterase); from tissue; host or cells: equine serum
T2 sequence (P81908 whole entry): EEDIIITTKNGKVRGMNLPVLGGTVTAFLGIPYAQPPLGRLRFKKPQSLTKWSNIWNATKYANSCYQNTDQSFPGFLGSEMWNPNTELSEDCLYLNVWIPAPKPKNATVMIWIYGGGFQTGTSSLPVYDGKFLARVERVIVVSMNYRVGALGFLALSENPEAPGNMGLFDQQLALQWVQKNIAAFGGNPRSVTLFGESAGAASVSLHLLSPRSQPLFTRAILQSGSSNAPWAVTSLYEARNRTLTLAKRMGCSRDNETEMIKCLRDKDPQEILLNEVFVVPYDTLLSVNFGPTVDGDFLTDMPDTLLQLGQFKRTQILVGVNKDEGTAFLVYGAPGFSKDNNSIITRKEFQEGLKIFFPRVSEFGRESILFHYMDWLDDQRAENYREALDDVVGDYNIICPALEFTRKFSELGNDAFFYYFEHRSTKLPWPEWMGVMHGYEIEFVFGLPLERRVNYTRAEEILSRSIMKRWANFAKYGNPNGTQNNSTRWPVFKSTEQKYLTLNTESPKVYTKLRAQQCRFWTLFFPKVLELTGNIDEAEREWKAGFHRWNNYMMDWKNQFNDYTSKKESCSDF
Method: as §2, §3

P-glycoprotein (P-gp) = biological target: T3, P-glycoprotein (P-gp) (Homo sapiens, UniProt P08183); experiment: Calcein-AM-assay in hMEC/D3 cells; type: cell-based; conditions: 1, 10, 50 and 100 μM
T3 construct: endogenous in cells; host or cells: hMEC/D3 cells
T3 sequence (P08183 whole entry): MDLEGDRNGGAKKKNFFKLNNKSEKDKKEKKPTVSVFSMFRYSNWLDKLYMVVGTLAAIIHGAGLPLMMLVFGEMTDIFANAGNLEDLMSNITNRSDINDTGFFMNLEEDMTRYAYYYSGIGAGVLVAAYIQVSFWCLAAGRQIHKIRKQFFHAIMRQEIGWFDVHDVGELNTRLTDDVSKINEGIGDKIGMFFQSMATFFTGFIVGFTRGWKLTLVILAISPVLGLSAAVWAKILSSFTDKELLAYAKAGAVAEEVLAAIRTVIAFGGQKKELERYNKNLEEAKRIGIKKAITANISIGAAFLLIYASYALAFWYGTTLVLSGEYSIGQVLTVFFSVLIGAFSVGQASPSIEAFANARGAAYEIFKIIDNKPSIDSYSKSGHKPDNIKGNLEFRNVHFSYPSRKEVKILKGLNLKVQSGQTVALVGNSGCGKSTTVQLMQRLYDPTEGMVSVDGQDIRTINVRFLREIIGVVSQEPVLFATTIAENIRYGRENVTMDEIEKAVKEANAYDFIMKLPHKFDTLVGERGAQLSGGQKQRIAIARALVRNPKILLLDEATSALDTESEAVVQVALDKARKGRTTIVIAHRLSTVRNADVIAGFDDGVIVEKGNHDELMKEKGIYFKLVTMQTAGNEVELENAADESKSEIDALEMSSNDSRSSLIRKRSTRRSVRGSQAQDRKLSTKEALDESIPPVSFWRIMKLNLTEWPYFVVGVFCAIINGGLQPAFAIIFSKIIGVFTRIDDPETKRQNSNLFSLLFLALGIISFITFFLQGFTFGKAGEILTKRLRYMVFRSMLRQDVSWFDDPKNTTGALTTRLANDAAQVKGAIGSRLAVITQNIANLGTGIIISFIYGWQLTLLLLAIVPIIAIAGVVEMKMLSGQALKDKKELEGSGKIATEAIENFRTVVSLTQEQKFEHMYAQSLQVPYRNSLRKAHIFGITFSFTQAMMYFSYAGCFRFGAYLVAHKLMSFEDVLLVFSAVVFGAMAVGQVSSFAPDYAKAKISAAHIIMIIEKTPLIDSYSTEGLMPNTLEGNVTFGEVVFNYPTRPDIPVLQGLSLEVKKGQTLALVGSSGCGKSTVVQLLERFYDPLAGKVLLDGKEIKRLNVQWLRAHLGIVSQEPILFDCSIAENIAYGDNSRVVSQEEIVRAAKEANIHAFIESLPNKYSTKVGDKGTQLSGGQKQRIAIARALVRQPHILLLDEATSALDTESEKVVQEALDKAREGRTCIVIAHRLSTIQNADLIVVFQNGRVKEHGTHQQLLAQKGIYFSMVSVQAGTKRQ
Method: To complement this approach and better understand whether these compounds may be substrates of such transporters, we next employed the calcein-AM-assay. This assay is particularly useful for assessing P-glycoprotein (P-gp), a major efflux transporter at the BBB that actively limits drug accumulation in the brain. To investigate potential interactions with P-gp, compounds 10, 11q-s were tested at concentrations of 1 μM, 10 μM, 50 μM and 100 μM, using the calcein-AM-assay in hMEC/D3 cells (Figure ). […] Therefore, these compounds are not expected to be P-gp substrates and may have favorable capacity to cross the BBB via passive diffusion, making them promising candidates for CNS drug development. […].
For all compounds tested, stock solutions were prepared in DMSO. Dilutions were then made with Krebs-Ringer buffer (KRB). […] Fluorescence was measured using a Tecan Infinite 200 Pro plate reader with λ excitation = 485 nm and λ emission = 535 nm. Each test compound was measured with n = 3, control and background were measured with n = 3. All fluorescence values were corrected by subtracting the background fluorescence. The increase in cellular fluorescence caused by a test compound was referred to the fluorescence of the control. […]

in vitro = conditions: for Prediction (penetration into the CNS): class from PAMPA-BBB P e; for Papp at 2.5 h: pig, PAMPA, pH 7.4
Method: To assess BBB permeability, a parallel artificial membrane permeability assay (PAMPA)-BBB was performed, which predicts passive BBB permeability using a brain lipid porcine membrane.
The prediction of the brain penetration was evaluated using a PAMPA-BBB. […] Next, 100 μL of these stock solutions were added to a solution of 1400 μL of EtOH and 3500 μL of PBS at pH 7.4, to reach 30% of EtOH concentration in the experiment. These solutions were filtered, using Filter PDVF membrane units (diameter 30 mm, pore size 0.45 μm, from Symta). After this, the acceptor 96-well microplate (Multiscreen, catalogue no. MAMCS9610, from Millipore) was filled with 180 μL of PBS/EtOH (70/30). […] After 5 min, 180 μL of each compound solution was added. 1–2 mg of each selected compound was dissolved in 1500 μL of EtOH and 3500 μL of PBS at pH 7.4, filtered, and then added to the donor 96-well plate to determine their ability to cross the brain barrier. After this, the donor plate was carefully put on the acceptor plate to form a “sandwich” and incubated for 2.5 h at 25 °C. During this period, the compounds diffused from the donor plate through the brain lipid membrane into the acceptor plate. Afterward, the donor plate was removed. A 96-well plate UV reader (Thermoscientific, Multiskan spectrum) was used to determine the concentration of compounds and commercial drugs in the acceptor and donor wells. Every sample was analyzed at three to five wavelengths, in three wells, and in two independent runs. […] Ten quality control compounds (previously mentioned) of known BBB permeability were included in each experiment to validate the analysis set.

T1 sequence (P81908 whole entry): as the sequence (P81908 whole entry) above

Row | SMILES | IC50 [1] [µM] | Type of inhibition, AChE (AChE) | IC50 ([2]; mean ± SEM, n = 3, n.a = nonactive, IC50 determined only if inhibition higher than 50% at 20 μM) [µM] | SI eeAChE [2] | Type of inhibition, BChE (BChE) | Interaction with P-gp (intracellular calcein fluorescence) (P-glycoprotein (P-gp)) | Prediction (penetration into the CNS) (in vitro) | Papp at 2.5 h (in vitro) [×10⁻⁶ cm/s] | IC50 [2] [µM]
1 | C#CCN(CC#C)c1ccccc1/C=C/c1cc(=O)c2ccccc2o1 [Compound 10, (E)-2-{2-[Di(prop-2-yn-1-yl)amino]styryl}-4H-chromen-4-one] | 5.9 ± 0.4 | reversible competitive inhibition | 8.7 ± 0.5 | 0.68 | reversible competitive inhibition | clear inhibitory effect on P-gp activity | CNS+ (High BBB permeation predicted (CNS+) P e > 3.93) | 11.6 ± 3.39 | –
2 | COc1ccc2c(=O)c3cc4c(cc3oc2c1)-c1cc(Cl)ccc1OC4 [Compound 11r, 2-Chloro-11-methoxy-6H,8H-chromeno[3,4-b]xanthen-8-one] | 6.3 ± 0.6 | reversible competitive inhibition | – | 3.00 | reversible competitive inhibition | unlikely to be actively effluxed from the brain | CNS+ (High BBB permeation predicted (CNS+) P e > 3.93) | 7.12 ± 0.89 | 2.1 ± 0.9
